# Assay results as given in US20110251379A1, “COMPOUNDS USEFUL FOR TREATING NEURODEGENERATIVE DISORDERS” (Satori Pharmaceuticals, Inc., priority 2010, published 2011).
# Like-named read-outs stand apart in the source and are kept apart here.
# How the values were obtained:
# Format in all cases: cell-based
# Aβ-38 = assay: MSD Human (6E10) Ab 3-PLEX elisa, conditioned media of 2B7 cells: Aβ-38; details: Homo sapiens, Aβ-38 (superscript a)
# In short: (§1)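 We dose confluent 2B7 cells for 5 hours at 37° C, keeping DMSO at 1%. Diluted media then incubates on antibody-coated plates either overnight at 4 degrees C or 2 hours at room temp.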
# Aβ-40 = assay: MSD Human (6E10) Ab 3-PLEX elisa, conditioned media of 2B7 cells: Aβ-40; details: Homo sapiens; for inhibition at 20 µM: Aβ-40, 20 μM; for IC50: Aβ-40 (superscript b)
# In short: as §1
# Aβ-42 = assay: MSD Human (6E10) Ab 3-PLEX elisa, conditioned media of 2B7 cells: Aβ-42; details: Homo sapiens, Aβ-42 (superscript c)
# In short: as §1
smiles,measurement,setting,value
C[C@@H]1CC([C@@H]2OCOC2(C)C)OC2[C@H]1[C@@]1(C)CC[C@@]34C[C@@]35CCC(O[C@H]3CN(C6COC6)CCO3)C(C)(C)[C@@H]5CCC4[C@]1(C)[C@H]2O (stereo partly drawn),IC50,Aβ-38; read-out: 50% reduction value,1000 to 10000 nM
same,inhibition at 20 µM,Aβ-40,25 to 75%
same,IC50,Aβ-42; read-out: 50% reduction value,> 10000 nM
C=C(C)CO[C@@H](C1C[C@@H](C)[C@H]2C(O1)[C@H](O)[C@@]1(C)C3CC[C@H]4C(C)(C)C(O)CC[C@@]45C[C@@]35CC[C@]21C)C(C)(C)O (stereo partly drawn),IC50,Aβ-38; read-out: 50% reduction value,< 1000 nM
same,IC50,Aβ-38; read-out: IC50 range,< 1000 nM
same,IC50,Aβ-40; read-out: 50% reduction value,1000 to 10000 nM
same,IC50,Aβ-40; read-out: IC50 range,1000 to 10000 nM
same,IC50,Aβ-42; read-out: 50% reduction value,< 1000 nM
same,IC50,Aβ-42; read-out: IC50 range,< 1000 nM
CO[C@@H](C1C[C@@H](C)[C@H]2C(O1)[C@H](O)[C@@]1(C)C3CC[C@H]4C(C)(C)C(OC(=O)NC5COC5)CC[C@@]45C[C@@]35CC[C@]21C)C(C)(C)O (stereo partly drawn),IC50,Aβ-38; read-out: 50% reduction value,< 1000 nM
same,inhibition at 20 µM,Aβ-40,25 to 75%
same,IC50,Aβ-42; read-out: 50% reduction value,< 1000 nM
same,IC50,Aβ-42; read-out: IC50 range,< 1000 nM
CO[C@@H](C1C[C@@H](C)[C@H]2C(O1)[C@H](O)[C@@]1(C)C3CC[C@H]4C(C)(C)C(OC(=O)NC5CN(C)C5)CC[C@@]45C[C@@]35CC[C@]21C)C(C)(C)O (stereo partly drawn),IC50,Aβ-38; read-out: 50% reduction value,< 1000 nM
same,IC50,Aβ-38; read-out: IC50 range,1000 to 10000 nM
same,IC50,Aβ-40; read-out: 50% reduction value,1000 to 10000 nM
same,IC50,Aβ-40; read-out: IC50 range,1000 to 10000 nM
same,IC50,Aβ-42; read-out: 50% reduction value,< 1000 nM
same,IC50,Aβ-42; read-out: IC50 range,< 1000 nM
CO[C@@H](C1C[C@@H](C)[C@H]2C(O1)[C@H](O)[C@@]1(C)C3CC[C@H]4C(C)(C)C(OC(=O)NC5CNC5)CC[C@@]45C[C@@]35CC[C@]21C)C(C)(C)O (stereo partly drawn),IC50,Aβ-38; read-out: 50% reduction value,< 1000 nM
same,IC50,Aβ-40; read-out: 50% reduction value,1000 to 10000 nM
same,IC50,Aβ-40; read-out: IC50 range,1000 to 10000 nM
same,IC50,Aβ-42; read-out: 50% reduction value,< 1000 nM
same,IC50,Aβ-42; read-out: IC50 range,< 1000 nM
CC(C)[C@@H](OC(=O)N1CCC1)C1C[C@@H](C)[C@H]2C(O1)[C@H](O)[C@@]1(C)C3CC[C@H]4C(C)(C)C(OC(=O)N5CCN(S(C)(=O)=O)CC5)CC[C@@]45C[C@@]35CC[C@]21C (stereo partly drawn),IC50,Aβ-38; read-out: 50% reduction value,< 1000 nM
same,IC50,Aβ-38; read-out: IC50 range,< 1000 nM
same,IC50,Aβ-40; read-out: 50% reduction value,1000 to 10000 nM
same,IC50,Aβ-40; read-out: IC50 range,1000 to 10000 nM
same,IC50,Aβ-42; read-out: 50% reduction value,< 1000 nM
same,IC50,Aβ-42; read-out: IC50 range,< 1000 nM
CC(=O)N1CCN(C(=O)OC2CC[C@]34C[C@]35CC[C@]3(C)[C@@H]6C(OC([C@H](OC(=O)N7CCC7)C(C)C)C[C@H]6C)[C@H](O)[C@@]3(C)C5CC[C@H]4C2(C)C)CC1 (stereo partly drawn),IC50,Aβ-38; read-out: 50% reduction value,< 1000 nM
same,IC50,Aβ-38; read-out: IC50 range,< 1000 nM
same,IC50,Aβ-40; read-out: 50% reduction value,1000 to 10000 nM
same,IC50,Aβ-40; read-out: IC50 range,1000 to 10000 nM
same,IC50,Aβ-42; read-out: 50% reduction value,< 1000 nM
same,IC50,Aβ-42; read-out: IC50 range,< 1000 nM
CCNC(=O)O[C@H](C(C)C)C1C[C@@H](C)[C@H]2C(O1)[C@H](O)[C@@]1(C)C3CC[C@H]4C(C)(C)C(OC(=O)N5CCOCC5)CC[C@@]45C[C@@]35CC[C@]21C (stereo partly drawn),IC50,Aβ-38; read-out: 50% reduction value,< 1000 nM
same,inhibition at 20 µM,Aβ-40,25 to 75%
same,IC50,Aβ-42; read-out: IC50 range,< 1000 nM
CCNC(=O)O[C@H](C(C)C)C1C[C@@H](C)[C@H]2C(O1)[C@H](O)[C@@]1(C)C3CC[C@H]4C(C)(C)C(OC(N)=O)CC[C@@]45C[C@@]35CC[C@]21C (stereo partly drawn),IC50,Aβ-38; read-out: 50% reduction value,< 1000 nM
same,IC50,Aβ-40; read-out: 50% reduction value,1000 to 10000 nM
same,IC50,Aβ-42; read-out: 50% reduction value,< 1000 nM
CCNC(=O)O[C@H](C(C)C)C1C[C@@H](C)[C@H]2C(O1)[C@H](O)[C@@]1(C)C3CC[C@H]4C(C)(C)C(OC(=O)NC5CNC5)CC[C@@]45C[C@@]35CC[C@]21C (stereo partly drawn),IC50,Aβ-38; read-out: 50% reduction value,< 1000 nM
same,IC50,Aβ-38; read-out: IC50 range,< 1000 nM
same,IC50,Aβ-40; read-out: 50% reduction value,1000 to 10000 nM
same,IC50,Aβ-40; read-out: IC50 range,> 10000 nM
same,IC50,Aβ-42; read-out: 50% reduction value,< 1000 nM
same,IC50,Aβ-42; read-out: IC50 range,< 1000 nM
CNC(=O)OC1CC[C@]23C[C@]24CC[C@]2(C)[C@@H]5C(OC([C@H](OC(=O)N6CCC6)C(C)C)C[C@H]5C)[C@H](O)[C@@]2(C)C4CC[C@H]3C1(C)C (stereo partly drawn),IC50,Aβ-38; read-out: 50% reduction value,< 1000 nM
same,IC50,Aβ-38; read-out: IC50 range,< 1000 nM
same,IC50,Aβ-40; read-out: 50% reduction value,1000 to 10000 nM
same,IC50,Aβ-40; read-out: IC50 range,1000 to 10000 nM
same,IC50,Aβ-42; read-out: 50% reduction value,< 1000 nM
same,IC50,Aβ-42; read-out: IC50 range,< 1000 nM
CC(C)[C@@H](OC(=O)N1CCC1)C1C[C@@H](C)[C@H]2C(O1)[C@H](O)[C@@]1(C)C3CC[C@H]4C(C)(C)C(OC(=O)N5CCn6c(nnc6C(F)(F)F)C5)CC[C@@]45C[C@@]35CC[C@]21C (stereo partly drawn),IC50,Aβ-38; read-out: 50% reduction value,< 1000 nM
same,inhibition at 20 µM,Aβ-40,25 to 75%
same,IC50,Aβ-42; read-out: 50% reduction value,< 1000 nM
CC(C)[C@@H](OC(=O)N1CCC1)C1C[C@@H](C)[C@H]2C(O1)[C@H](O)[C@@]1(C)C3CC[C@H]4C(C)(C)C(OC(=O)N5CC6(COC6)C5)CC[C@@]45C[C@@]35CC[C@]21C (stereo partly drawn),IC50,Aβ-38; read-out: 50% reduction value,< 1000 nM
same,IC50,Aβ-40; read-out: 50% reduction value,> 10000 nM
same,IC50,Aβ-42; read-out: 50% reduction value,< 1000 nM
CC(C)[C@@H](OC(=O)N1CCC1)C1C[C@@H](C)[C@H]2C(O1)[C@H](O)[C@@]1(C)C3CC[C@H]4C(C)(C)C(OC(=O)NC5COC5)CC[C@@]45C[C@@]35CC[C@]21C (stereo partly drawn),IC50,Aβ-38; read-out: 50% reduction value,< 1000 nM
same,IC50,Aβ-40; read-out: 50% reduction value,> 10000 nM
same,IC50,Aβ-42; read-out: 50% reduction value,< 1000 nM
CC(C)[C@@H](OC(=O)N1CCC1)C1C[C@@H](C)[C@H]2C(O1)[C@H](O)[C@@]1(C)C3CC[C@H]4C(C)(C)C(OC(=O)N5CCn6cnnc6C5)CC[C@@]45C[C@@]35CC[C@]21C (stereo partly drawn),IC50,Aβ-38; read-out: 50% reduction value,< 1000 nM
same,IC50,Aβ-40; read-out: 50% reduction value,> 10000 nM
same,IC50,Aβ-42; read-out: 50% reduction value,< 1000 nM
CC(C)[C@@H](OC(=O)N1CCC1)C1C[C@@H](C)[C@H]2C(O1)[C@H](O)[C@@]1(C)C3CC[C@H]4C(C)(C)C(OC(=O)N5CCn6ccnc6C5)CC[C@@]45C[C@@]35CC[C@]21C (stereo partly drawn),IC50,Aβ-38; read-out: 50% reduction value,< 1000 nM
same,IC50,Aβ-40; read-out: 50% reduction value,> 10000 nM
same,IC50,Aβ-42; read-out: 50% reduction value,< 1000 nM
